Measured values from the Kinase Knowledgebase extract (Sharma et al. 2016).

Target: PIK3CA (human) (UniProt P42336)
Experiment: Assessment of PIK3CA Kinase Activity

PIK3CA (human), sequence (P42336 whole entry, looked up): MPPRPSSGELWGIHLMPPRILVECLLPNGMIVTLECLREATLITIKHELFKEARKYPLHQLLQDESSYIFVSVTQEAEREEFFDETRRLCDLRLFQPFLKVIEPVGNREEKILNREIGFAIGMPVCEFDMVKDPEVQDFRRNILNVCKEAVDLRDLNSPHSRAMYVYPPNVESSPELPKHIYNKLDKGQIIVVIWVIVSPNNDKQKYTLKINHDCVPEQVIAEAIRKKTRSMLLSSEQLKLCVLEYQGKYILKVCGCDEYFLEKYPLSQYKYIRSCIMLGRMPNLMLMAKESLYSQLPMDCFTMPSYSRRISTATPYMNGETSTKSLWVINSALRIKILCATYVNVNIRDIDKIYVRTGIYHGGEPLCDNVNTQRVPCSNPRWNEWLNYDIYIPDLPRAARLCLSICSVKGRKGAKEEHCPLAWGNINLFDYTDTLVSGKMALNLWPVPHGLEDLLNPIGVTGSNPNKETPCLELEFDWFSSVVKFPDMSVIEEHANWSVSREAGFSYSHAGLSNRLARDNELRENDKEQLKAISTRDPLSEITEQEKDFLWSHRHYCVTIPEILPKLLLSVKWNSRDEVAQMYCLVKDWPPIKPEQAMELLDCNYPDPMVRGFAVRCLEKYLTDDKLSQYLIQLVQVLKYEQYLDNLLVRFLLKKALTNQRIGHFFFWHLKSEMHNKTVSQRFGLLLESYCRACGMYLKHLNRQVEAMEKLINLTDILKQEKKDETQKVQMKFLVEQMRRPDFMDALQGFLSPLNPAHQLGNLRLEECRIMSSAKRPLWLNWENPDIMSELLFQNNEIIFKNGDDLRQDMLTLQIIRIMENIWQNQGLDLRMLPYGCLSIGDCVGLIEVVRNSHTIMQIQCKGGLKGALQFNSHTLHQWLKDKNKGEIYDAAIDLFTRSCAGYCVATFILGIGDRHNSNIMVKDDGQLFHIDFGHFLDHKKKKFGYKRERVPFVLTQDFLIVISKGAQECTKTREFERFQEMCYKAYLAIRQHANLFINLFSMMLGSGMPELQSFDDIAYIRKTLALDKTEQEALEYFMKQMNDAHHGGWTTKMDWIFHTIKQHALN

Row | Compound | IC50
1 | Cc1cc(-c2cnc3sc(N)nc3c2)cc2c1OCCN(c1nc(N)ccc1C#N)C2 | ≤ 100 nM
2 | COc1cc(-c2cnc3sc(N)nc3c2)cc2c1OCCN(c1nc(CN(C)C)nc(C)c1C(C)C)C2 | ≤ 100 nM
3 | COCCc1c(C)nc(CN2CCCC2)nc1N1CCOc2c(C)cc(-c3cnc4sc(N)nc4c3)cc2C1 | ≤ 100 nM
4 | Cc1cc(-c2cnc3sc(N)nc3c2)cc2c1OCCN(c1nc([C@@H]3C[C@@H](F)CN3)nc(C)c1C(C)C)C2 | ≤ 100 nM
5 | Cc1cc(-c2cnc3sc(N)nc3c2)cc2c1OCCN(c1ncc(F)c(N)n1)C2 | ≤ 100 nM
6 | Cc1cc(-c2cnc3sc(N)nc3c2)cc2c1OCCN(c1ncccc1C#N)C2 | 100 to 500 nM
7 | C=C(C)c1c(C)ncnc1N1CCOc2c(C)cc(-c3cnc4sc(N)nc4c3)cc2C1 | ≤ 100 nM
8 | Cc1cc(-c2ccc(-c3ncc[nH]3)cc2)cc2c1OCCN(c1nc(N)nc(C)c1C(C)C)C2 | 100 to 500 nM
9 | Cc1nc2c(c(N3CCOc4c(C)cc(-c5cnc6sc(N)nc6c5)cc4C3)n1)CC(C)(C)CC2 | ≤ 100 nM
10 | Cc1cc(-c2cn(C)nc2C)cc2c1OCCN(c1nc(N)nc(C)c1C(C)C)C2 | ≤ 100 nM
11 | Cc1cc(-c2cnc3sc(N)nc3c2)cc2c1OCCN(c1nc(CN)nc(C)c1C(C)C)C2 | ≤ 100 nM
12 | Cc1cc(-c2cnc3sc(N)nc3c2)cc2c1OCCN(c1nc(C(O)C(F)(F)F)nc(C)c1C(C)C)C2 (stereo not given) | ≤ 100 nM
13 | CCN(Cc1nc(C)c(C(C)C)c(N2CCOc3c(C)cc(-c4cnc5nc[nH]c5c4)cc3C2)n1)CC(F)F | ≤ 100 nM
14 | Cc1cnc(N)nc1N1CCOc2c(C)cc(-c3nnc(N)s3)cc2C1 | ≤ 100 nM
15 | Cc1cc(-c2cccc(C(N)=O)c2)cc2c1OCCN(c1nc(N)nc(C)c1C(C)C)C2 | 100 to 500 nM
16 | CCN(Cc1nc(C)c(C(C)C)c(N2CCOc3c(C)cc(-c4nnc(N)s4)cc3C2)n1)CC(F)F | ≤ 100 nM
17 | Cc1cc(-c2cnc3sc(N)nc3c2)cc2c1OCCN(c1nc(C(C)N)nc(C)c1C(C)C)C2 (stereo not given) | ≤ 100 nM
18 | Cc1cc(-c2cnc3sc(N)nc3c2)cc2c1OCCN(c1nc(CN(C)C)ncc1CC(F)(F)F)C2 | 100 to 500 nM
19 | CCc1nc(N)nc(N2CCOc3c(C)cc(-c4cnc5sc(N)nc5c4)cc3C2)c1C(C)C | ≤ 100 nM
20 | Cc1cc(-c2nnc(N)s2)cc2c1OCCN(c1nc(N)ncc1C(C)C)C2 | ≤ 100 nM
21 | Cc1cc(-c2cnc3sc(N)nc3c2)cc2c1OCCN(c1nc(CNCC(F)(F)F)nc(C)c1C(C)C)C2 | ≤ 100 nM
22 | Cc1cc(-c2nnc(N)s2)cc2c1OCCN(c1ncnc(C)c1C)C2 | ≤ 100 nM
23 | Cc1ncc(C(C)C)c(N2CCOc3c(C)cc(-c4cnc5sc(N)nc5c4)cc3C2)n1 | ≤ 100 nM

The remaining lines, values ahead:

Row | IC50 | Compound
24 | ≤ 100 nM | Cc1cc(-c2cnc3sc(N)nc3c2)cc2c1OCCN(c1nc(N)c(C#N)c(C)c1C#N)C2
25 | ≤ 100 nM | Cc1cc(-c2cnc3sc(N)nc3c2)cc2c1OCCN(c1nc(CN(C)C)nc(Cl)c1C(C)C)C2
26 | ≤ 100 nM | Cc1cc(-c2cnc3sc(N)nc3c2)cc2c1OCCN(c1nc([C@@H]3CC(F)(F)CN3)nc(C)c1C(C)C)C2
27 | ≤ 100 nM | CCc1c(C)nc(N)nc1N1CCOc2c(C)cc(-c3cnc4sc(N)nc4c3)cc2C1
28 | ≤ 100 nM | Cc1cc(-c2cn[nH]c2)cc2c1OCCN(c1nc(N)nc(C)c1C(C)C)C2
29 | 100 to 500 nM | Cc1cc(-c2cnc3sc(N)nc3c2)cc2c1OCCN(c1ncc(C(N)=O)c(N)n1)C2
30 | ≤ 100 nM | Cc1cc(-c2cnc3sc(N)nc3c2)cc2c1OCCN(c1nc(N)nc(C)c1-c1cccc(F)c1)C2
31 | ≤ 100 nM | Cc1cc(-c2cnc3sc(N)nc3c2)cc2c1OCCN(c1nc(C(C)O)nc(C)c1C(C)C)C2 (stereo not given)
32 | ≤ 100 nM | Cc1nc(N)nc(N2CCOc3ccc(-c4cnc5sc(N)nc5c4)cc3C2)c1C(C)C
33 | ≤ 100 nM | Cc1cc(-c2cnc3nc[nH]c3c2)cc2c1OCCN(c1nc(N)nc(C)c1C(C)C)C2
34 | ≤ 100 nM | COC(C)c1c(C)nc(C)nc1N1CCOc2c(C)cc(-c3cnc4sc(N)nc4c3)cc2C1 (stereo not given)
35 | ≤ 100 nM | Cc1cc(-c2cnc(Cl)c(NS(C)(=O)=O)c2)cc2c1OCCN(c1nc(CNCCF)nc(C)c1C(C)C)C2
36 | 100 to 500 nM | Cc1cc(-c2cnc3sc(N)nc3c2)cc2c1OCCN(c1ncnc(Cl)c1C(C)(C)O)C2
37 | ≤ 100 nM | CNc1nc(C)c(C(C)C)c(N2CCOc3c(C)cc(-c4cnc5sc(N)nc5c4)cc3C2)n1
38 | ≤ 100 nM | Cc1cc(-c2cnc3sc(N)nc3c2)cc2c1OCCN(c1nc([S+](C)[O-])nc(C)c1C(C)C)C2 (stereo not given)
39 | ≤ 100 nM | Cc1cc(-c2cnc(Cl)c(NS(C)(=O)=O)c2)cc2c1OCCN(c1nc(C(=O)NCCN(C)C)nc(C)c1C(C)C)C2
40 | 100 to 500 nM | Cc1ncc(-c2cc(C)c3c(c2)CN(c2nc(N)nc(C)c2C(C)C)CCO3)s1
